# Data from patent publication US20090185973A1, “METHODS, COMPOSITIONS, UNIT DOSAGE FORMS, AND KITS FOR PHARMACOLOGIC STRESS TESTING WITH REDUCED SIDE EFFECTS” (ADENOBIO N.V., priority 2008, published 2009).
# Where “and” joins values, the source holds several entries; their conditions need not be identical. Equal entries are not always repeated. Where two headings read alike, the source gives them in different places.
# Key:
# [1] = molecular target: A2a receptor (Homo sapiens, UniProt P29274); conditions: in vivo; cited from earlier work
# A2a receptor, sequence (P29274 whole entry): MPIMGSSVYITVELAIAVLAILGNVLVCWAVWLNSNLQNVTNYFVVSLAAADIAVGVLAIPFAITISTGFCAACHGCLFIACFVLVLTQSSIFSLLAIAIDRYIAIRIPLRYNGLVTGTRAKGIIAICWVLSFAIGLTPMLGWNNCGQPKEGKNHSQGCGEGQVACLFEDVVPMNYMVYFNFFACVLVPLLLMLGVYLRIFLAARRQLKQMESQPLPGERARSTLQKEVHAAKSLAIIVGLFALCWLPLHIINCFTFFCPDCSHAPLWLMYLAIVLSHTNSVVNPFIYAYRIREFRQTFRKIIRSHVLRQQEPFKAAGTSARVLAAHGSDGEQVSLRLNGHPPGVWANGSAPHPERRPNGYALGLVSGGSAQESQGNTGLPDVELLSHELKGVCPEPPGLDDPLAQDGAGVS
# [2] = test system: guinea-pig; conditions: pretreatment dipyridamole 0.025 mg (n = 5); after 14C-adenosine IV injection; mean; cited from earlier work
# [3] = test system: patients; type: in vivo, human; conditions: for PV Max, individual patients / MV Max, individual patients / MV Min, individual patients / PV Min, individual patients: listed as DIP
# [4] = test system: patients suffering from ischemic heart disease; assay: Transthoracic doppler echocardiography (TTDE) blood flow velocity in LAD, sequential administration (Example 1); type: in vivo, human; conditions: lower doses of dipyridamole (10, 14 and 18 μg/kg)
# Procedure: In the combined administration, each of the two agents was administered at a dosage lower than its clinically preferred dosage when used as a single agent for myocardial perfusion imaging. Effects were measured using noninvasive transthoracic doppler echocardiography (TTDE).
# Primary efficacy end-points were peak and mean diastolic flow velocities (measured as reflecting coronary blood flow values). The secondary end-point was patient tolerance to the procedure. The protocol was designed as follows.
# Forty (40) consecutive patients suffering from ischemic heart disease were enrolled. Each patient served as their own control.
# […] Total doses are between about 4-6% of the lowest single-agent total dose of dipyridamole (i.e., 0.56 mg/kg, infused over a total of 4 minutes).
# This dose is half the standard single-agent dosage rate of 140 μg/kg/min.
# [5] = test system: patients with normal coronary reserve; assay: Priming dose effect: time to peak and return to baseline, concurrent administration (Example 4); type: in vivo, human
# Text: As a test, a low priming dose of dipyridamole was combined with the concurrent administration of the two drugs to determine whether the time to peak and the occurrence of near maximal hyperaemia could be accelerated, especially when infusion time is reduced by, for example, one minute.
# [6] = cited from earlier work
# [7] = DIP dose 28 μg/kg, ADE 140 μg/kg/min
# [8] = DIP dose 35 μg/kg, ADE 140 μg/kg/min
# [9] = DIP dose 40 μg/kg, ADE 140 μg/kg/min
smiles,measurement,setting,value
Nc1nc(N/N=C/C2CCCCC2)nc2c1ncn2[C@@H]1O[C@H](CO)[C@@H](O)[C@H]1O [binodenoson],Duration of action,[1],10 ± 6 min
OCCN(CCO)c1nc(N2CCCCC2)c2nc(N(CCO)CCO)nc(N3CCCCC3)c2n1 [dipyridamole],"14C distribution, Heart",[2],2.1 ± 1.01 percentage of ^14C administered
same,"14C distribution, Lungs",[2],71.4 ± 4.9 (p < 0.05) percentage of ^14C administered
same,"PV Max, individual patient","[3]; DIP dose 28 μg/kg bolus alone, ADE 140 μg/kg/min 3 min",26 cm/sec
same,"MV Max, individual patient",[3]; [7],21 cm/s
same,"MV Min, individual patient",[3]; [7],19 cm/s
same,"PV Min, individual patient",[3]; [7],23 cm/sec
same,"PV Max, individual patients","[3]; DIP dose 35 μg/kg bolus alone, ADE 140 μg/kg/min 3 min",23 cm/sec and 40 cm/sec
same,"MV Max, individual patients",[3]; [8],20 cm/s and 28 cm/s
same,"MV Min, individual patients",[3]; [8],18 cm/s and 22 cm/s
same,"PV Min, individual patients",[3]; [8],21 cm/sec and 30 cm/sec
same,"PV Max, individual patients","[3]; DIP dose 40 μg/kg bolus alone, ADE 140 μg/kg/min 3 min",35 cm/sec and 40 cm/sec
same,"MV Max, individual patients",[3]; [9],25 cm/s and 29 cm/s
same,"MV Min, individual patients",[3]; [9],23 cm/s and 24 cm/s
same,"PV Min, individual patients",[3]; [9],33 cm/sec and 34 cm/sec
same,Effect on peak and mean diastolic velocities,"[3]; dipyridamole alone, bolus 28, 35 or 40 μg/kg",did not modify
same,Symptoms recorded during a follow-up of 10 minutes,[3]; in vivo,No symptoms
same,Effect in preliminary dose ranging studies,[4],no effect
same,Effect of priming dose on time to peak,"[5]; dipyridamole priming dose 0.05 mg, 3 patients",did not modify
same,Effect of priming dose on time to peak,[5]; dipyridamole priming dose 0.1 mg,did modify
same,Effect of priming dose on time to peak,"[5]; dipyridamole priming dose 0.3 mg, 3 patients",did not perform better than 0.1 mg
same,Solubility in saline,[6]; saline,poorly soluble
same,Stability in the long term,[6]; solvents at pH>4,unstable
